The text below walks through data of ChEMBL document CHEMBL1122367, “Synthesis and antihypertensive activity of a series of spiro[1,3,4,6,7,11b-hexahydro-2H-benzo[a]quinolizine-2,5'-oxazolidin-2'-one]s” (1983).

The test system of experiment [1] is Rattus norvegicus. Briefly: Antihypertensive activity as percentage fall in systolic blood pressure in spontaneously hypertensive rats 3h after 50 mg/kg po administration. The format is functional, Artery.
The test system of experiment [2] is Rattus norvegicus. The experiment is described as follows: Antihypertensive activity as percentage fall in systolic blood pressure in spontaneously hypertensive rats 4 hr after 50 mg/kg po administration. The format is functional, Artery.
Experiment [3] has as its system Rattus norvegicus. The experiment is described as follows: Antihypertensive activity as percentage fall in systolic blood pressure in spontaneously hypertensive rats 1 hr after 50 mg/kg po administration. It is filed as functional, Artery.
The test system of experiment [4] is Rattus norvegicus. Briefly: Percentage fall in systolic blood pressure in spontaneously hypertensive rats 2 hr after 50 mg/kg p.o. administration. To be noted: route oral. The format is functional, Artery.
Experiment [5] concerns Rattus norvegicus. The experiment is described as follows: Percentage fall in systolic blood pressure in spontaneously hypertensive rats 3h after 50 mg/kg p.o. administration; Not significant. The format is functional, organism-based. Set-up: dose 50 mg/kg. To be noted: Artery, at 50 mg/kg.
Experiment [6] concerns Rattus norvegicus. The experiment is described as follows: Antihypertensive activity as percentage fall in systolic blood pressure in spontaneously hypertensive rats 4 hr after 50 mg/kg po administration; NS means nonsignificant difference between treated and control group. The format is functional, organism-based. The arrangement: dose 50 mg/kg. The following applies: Artery, at 50 mg/kg.

Experiment [7] relates to Rattus norvegicus. Briefly: Percentage fall in systolic blood pressure in spontaneously hypertensive rats 1 hr after 50 mg/kg p.o. administration; Not significant. The format is functional, organism-based. The arrangement: dose 50 mg/kg. To be noted: Artery, at 50 mg/kg.
Experiment [8] relates to Rattus norvegicus. Briefly: Percentage fall in systolic blood pressure in spontaneously hypertensive rats 2 hr after 50 mg/kg p.o. administration; Not significant. The format is functional, organism-based. To be noted: Artery, at 50 mg/kg. The arrangement: dose 50 mg/kg.
Experiment [9] relates to Rattus norvegicus. Briefly: Antihypertensive activity as percentage fall in systolic blood pressure in spontaneously hypertensive rats 1 hr after 25 mg/kg po administration. The format is functional, Artery.
The test system of experiment [10] is Rattus norvegicus. The experiment is described as follows: Antihypertensive activity as percentage fall in systolic blood pressure in spontaneously hypertensive rats 2 hr after 25 mg/kg po administration. It is filed as functional, Artery.
In experiment [11] the test system is Rattus norvegicus. Briefly: Antihypertensive activity as percentage fall in systolic blood pressure in spontaneously hypertensive rats 3h after 25 mg/kg po administration;NS means nonsignificant difference between treated and control group. The format is functional, organism-based. Set-up: dose 25 mg/kg. To be noted: Artery, at 25 mg/kg.

As for `CCC[C@H]1CN2CCc3cc(OC)c(OC)cc3[C@@H]2C[C@]12CNC(=O)O2`, the Fall in the experiment with Rattus norvegicus [1] is on record as 17%; in the experiment on Rattus norvegicus [2], 16%; with Rattus norvegicus [3], 41%; in the experiment with Rattus norvegicus [4], 27%.
As to `O=C1NC[C@]2(CCN3CCc4ccccc4[C@@H]3C2)O1`, the Fall result in the experiment on Rattus norvegicus [5], in the experiment with Rattus norvegicus [6], in the experiment on Rattus norvegicus [7] and in the experiment with Rattus norvegicus [8] was “Not significant” in each case.
`CC[C@H]1CN2CCc3cc4c(cc3[C@@H]2C[C@]12CNC(=O)O2)OCO4`: the Fall entry with Rattus norvegicus [5], in the experiment on Rattus norvegicus [6], in the experiment with Rattus norvegicus [7] and in the experiment with Rattus norvegicus [8] was “Not significant” each time.
For `COc1cc2c(cc1OC)[C@@H]1C[C@]3(CNC(=O)O3)[C@@H](c3ccccc3)CN1CC2`, the Fall was -9% with Rattus norvegicus [1], “Not significant” in the experiment with Rattus norvegicus [6], “Not significant” with Rattus norvegicus [7] and “Not significant” in the experiment with Rattus norvegicus [8].
For `CCCCN1C[C@]2(CCN3CCc4cc(OC)c(OC)cc4[C@@H]3C2)OC1=O`, the Fall result in the experiment with Rattus norvegicus [5], in the experiment with Rattus norvegicus [6], with Rattus norvegicus [7] and in the experiment with Rattus norvegicus [8] was “Not significant” throughout.
For the compound `C[C@H]1CN2CC[C@@]3(CNC(=O)O3)C[C@H]2c2ccccc21`, the Fall result in the experiment with Rattus norvegicus [5], in the experiment with Rattus norvegicus [6], in the experiment on Rattus norvegicus [7] and with Rattus norvegicus [8] was “Not significant” each time.
Consider `CC[C@H]1CN2CCc3ccccc3[C@@H]2C[C@]12CNC(=O)O2`, for which the Fall entry with Rattus norvegicus [5] is “Not significant”; in the experiment with Rattus norvegicus [6] it was “Not significant”; in the experiment with Rattus norvegicus [3], 25%; in the experiment on Rattus norvegicus [8] it was “Not significant”.
On to `CCOc1cc2c(cc1OC)[C@@H]1C[C@]3(CNC(=O)O3)[C@@H](CC)CN1CC2`, for which the Fall is 17% with Rattus norvegicus [1], “Not significant” in the experiment on Rattus norvegicus [6], 39% in the experiment on Rattus norvegicus [3] and 32% in the experiment on Rattus norvegicus [4].
As for `COc1cc2c(cc1OC)[C@@H]1C[C@@]3(CCN1CC2)CN(C)C(=O)O3`, the Fall result is “Not significant” in the experiment with Rattus norvegicus [5], 21% in the experiment on Rattus norvegicus [2], 28% in the experiment on Rattus norvegicus [3] and 14% in the experiment with Rattus norvegicus [4].
As to `COc1cc2c(cc1OC)[C@@H]1C[C@@]3(CCN1CC2)CNC(=O)O3`, the Fall was 12% in the experiment with Rattus norvegicus [1]; “Not significant” in the experiment on Rattus norvegicus [5]; 15% with Rattus norvegicus [2]; “Not significant” in the experiment on Rattus norvegicus [6]; 22% with Rattus norvegicus [9]; 20% in the experiment on Rattus norvegicus [3]. For the same compound, the Fall result is “Not significant” in the experiment on Rattus norvegicus [7]; 19% in the experiment with Rattus norvegicus [10]; 13% with Rattus norvegicus [4]; “Not significant” with Rattus norvegicus [8]; “Not significant” in the experiment with Rattus norvegicus [11].
As to `CCN1C[C@@]2(CCN3CCc4cc(OC)c(OC)cc4[C@@H]3C2)OC1=O`, the Fall result with Rattus norvegicus [5] is “Not significant”; in the experiment with Rattus norvegicus [6], “Not significant”; with Rattus norvegicus [3], 31%; in the experiment with Rattus norvegicus [8], “Not significant”.
For the compound `O=C1NC[C@@]2(CCN3C[C@@H](c4ccccc4)c4ccccc4[C@@H]3C2)O1`, the Fall result in the experiment on Rattus norvegicus [5], in the experiment on Rattus norvegicus [6], in the experiment on Rattus norvegicus [7] and in the experiment on Rattus norvegicus [8] was “Not significant” throughout.
With `COc1cc2c(cc1OC)[C@@H]1C[C@]3(CCN1CC2)CN(C)C(=O)O3`, the Fall result in the experiment on Rattus norvegicus [5] was “Not significant”; in the experiment on Rattus norvegicus [2] it was 18%; in the experiment on Rattus norvegicus [3], 27%; with Rattus norvegicus [8], “Not significant”.
Consider `CC[C@H]1CN2CCc3cc(OC)c(OC)cc3[C@@H]2C[C@]12CNC(=O)O2` (racemic), for which the Fall turned out to be 29% with Rattus norvegicus [1] (50 mg/kg), 33% with Rattus norvegicus [2] (50 mg/kg), 45% in the experiment on Rattus norvegicus [3] (50 mg/kg) and 37% in the experiment with Rattus norvegicus [4] (50 mg/kg).
Turning to `CC[C@H]1NC(=O)O[C@]12CCN1CCc3cc(OC)c(OC)cc3[C@@H]1C2`, the Fall in the experiment on Rattus norvegicus [1] is on record as 25%; with Rattus norvegicus [2] it was 25%; in the experiment on Rattus norvegicus [3] it was 41%; with Rattus norvegicus [4], 38%.
`CCCCOc1cc2c(cc1OC)CCN1CC[C@@]3(CNC(=O)O3)C[C@@H]21`: the Fall result in the experiment with Rattus norvegicus [5] is “Not significant”; with Rattus norvegicus [6], “Not significant”; in the experiment with Rattus norvegicus [3] it was 15%; in the experiment with Rattus norvegicus [8], “Not significant”.
For the compound `COc1cc2c(cc1OC)[C@@H]1C[C@]3(CNC(=O)O3)[C@@H](Cc3ccccc3)CN1CC2`, the Fall result in the experiment on Rattus norvegicus [5] was “Not significant”; with Rattus norvegicus [2] it was 19%; in the experiment with Rattus norvegicus [3] it was 27%; in the experiment with Rattus norvegicus [8], “Not significant”.
Regarding `CC[C@H]1CN2CCc3cc(OC)c(OC)cc3[C@@H]2C[C@@]12OC(=O)N[C@H]2CC`, the Fall in the experiment on Rattus norvegicus [1] turned out to be 30%; with Rattus norvegicus [2], 24%; in the experiment with Rattus norvegicus [3], 43%; with Rattus norvegicus [4], 48%.
The like results for `CCCC[C@H]1CN2CCc3cc(OC)c(OC)cc3[C@@H]2C[C@]12CNC(=O)O2` were, in that order, 13%, 13%, 34% and 21%.
On to `CCCN1C[C@]2(CCN3CCc4cc(OC)c(OC)cc4[C@@H]3C2)OC1=O`, for which the Fall entry in the experiment with Rattus norvegicus [5], with Rattus norvegicus [6], in the experiment with Rattus norvegicus [7] and in the experiment on Rattus norvegicus [8] was “Not significant” throughout.
As to `CN1C[C@]2(CCN3CCc4ccccc4[C@@H]3C2)OC1=O`, the Fall is -12% in the experiment on Rattus norvegicus [1], “Not significant” in the experiment with Rattus norvegicus [6], “Not significant” with Rattus norvegicus [7] and -10% in the experiment with Rattus norvegicus [4].
With `CCCOc1cc2c(cc1OC)CCN1CC[C@@]3(CNC(=O)O3)C[C@@H]21`, the Fall result with Rattus norvegicus [5], in the experiment on Rattus norvegicus [6], with Rattus norvegicus [7] and in the experiment on Rattus norvegicus [8] was “Not significant” in each case.
Consider `COc1cc2c(cc1OC)[C@@H]1C[C@]3(CCN1CC2)CN(C(C)C)C(=O)O3`, for which the Fall entry with Rattus norvegicus [5] was “Not significant”; in the experiment on Rattus norvegicus [6] it was “Not significant”; in the experiment with Rattus norvegicus [3], 29%; with Rattus norvegicus [4], 16%.
Take `COc1cc2c(cc1OC(C)C)[C@@H]1C[C@@]3(CCN1CC2)CNC(=O)O3`: the Fall was 8% in the experiment with Rattus norvegicus [1], “Not significant” in the experiment on Rattus norvegicus [6], 19% with Rattus norvegicus [3] and “Not significant” with Rattus norvegicus [8].
Turning to `CC[C@H]1CN2CCc3cc(OC)c(OC)cc3[C@@H]2C[C@]12CNC(=O)O2`, the Fall is reported as 33% in the experiment on Rattus norvegicus [1] (50 mg/kg); 28% with Rattus norvegicus [2] (50 mg/kg); 44% in the experiment with Rattus norvegicus [9]; 52% in the experiment with Rattus norvegicus [3] (50 mg/kg); 30% in the experiment on Rattus norvegicus [10]; 40% in the experiment on Rattus norvegicus [4] (50 mg/kg).
`COc1cc2c(cc1OC)[C@@H]1C[C@]3(CCN1CC2)CNC(=O)O3`: the Fall entry with Rattus norvegicus [5], with Rattus norvegicus [6], in the experiment with Rattus norvegicus [7] and in the experiment with Rattus norvegicus [8] was “Not significant” in each case.
Take `CC[C@@H]1NC(=O)O[C@]12CCN1CCc3cc(OC)c(OC)cc3[C@@H]1C2`: the Fall in the experiment on Rattus norvegicus [1] was 30%; in the experiment with Rattus norvegicus [2], 27%; with Rattus norvegicus [3], 45%; in the experiment on Rattus norvegicus [4], 37%.
Take `COc1cc2c(cc1OC)[C@@H]1C[C@]3(CCN1CC2)CN(C(C)(C)C)C(=O)O3`: the Fall result in the experiment with Rattus norvegicus [5] was “Not significant”; in the experiment on Rattus norvegicus [6], “Not significant”; in the experiment with Rattus norvegicus [3] it was 39%; in the experiment with Rattus norvegicus [4] it was 20%.
`CN1C[C@@]2(CCN3CCc4ccccc4[C@@H]3C2)OC1=O`: the Fall entry with Rattus norvegicus [5], in the experiment on Rattus norvegicus [6], with Rattus norvegicus [7] and in the experiment on Rattus norvegicus [8] was “Not significant” throughout.
As for `O=C1NC[C@@]2(CCN3CCc4cc5c(cc4[C@@H]3C2)OCO5)O1`, the Fall with Rattus norvegicus [1] was 14%; in the experiment on Rattus norvegicus [6], “Not significant”; in the experiment with Rattus norvegicus [3], 28%; with Rattus norvegicus [8], “Not significant”.
As to `CC1Cc2ccccc2[C@@H]2C[C@@]3(CCN12)CNC(=O)O3` (stereo partly specified), the Fall result in the experiment with Rattus norvegicus [5], in the experiment on Rattus norvegicus [6], with Rattus norvegicus [7] and with Rattus norvegicus [8] was “Not significant” throughout.
As to `CCOc1cc2c(cc1OC)CCN1C[C@H](CC)[C@@]3(CNC(=O)O3)C[C@@H]21`, the Fall with Rattus norvegicus [1] was 17%; in the experiment with Rattus norvegicus [6] it was “Not significant”; with Rattus norvegicus [3] it was 25%; in the experiment with Rattus norvegicus [4] it was 22%.
As for `C[C@@H]1CN2CC[C@@]3(CNC(=O)O3)C[C@H]2c2ccccc21`, the Fall result in the experiment on Rattus norvegicus [5] was “Not significant”; in the experiment on Rattus norvegicus [6], “Not significant”; with Rattus norvegicus [3], 16%; in the experiment on Rattus norvegicus [8], “Not significant”.
